From patent publication US11767316B2, “Non-fused thiophene derivatives and their uses” (ENYO PHARMA, priority 2018, dated 2023) come the findings set out here.

In one assay the test system is MMXF L-363. Kind of assay: Cytotoxicity, propidium iodide based monolayer assay, MMXF L-363. The class given is cell-based. The following applies: Homo sapiens, 96 h; MMXF L-363 (multiple myeloma), four days of treatment, T/C=50%; read-out: Absolute IC50. Here is the method:
The cytotoxicity was tested for compounds of the invention on five different cell-lines, namely LXFL 1121, MAXF 401, MMXF L-636, PRXF PC-3M and UXF 1138 which are respectively lung large cell carcinoma, breast adeno carcinoma, multiple myeloma, prostate adeno carcinoma and uterine sarcoma.
A working stock solution of the test compounds was prepared in DMSO at a concentration of 33 mM or 8.25 mM, and small aliquots were stored at −20° C. On each day of an experiment, a frozen aliquot of the working stock solution was thawed and stored at room temperature prior to and during treatment.
All liquid handling steps were performed using the Tecan Freedom EVO 200 platform. First, serial 2-fold dilutions of the 33 mM DMSO working stock solution were done in DMSO. […]
A modified propidium iodide (PI) based monolayer assay was used to assess the anti-cancer activity of the compounds. Briefly, cells were harvested from exponential phase cultures, counted and plated in 96 well flat-bottom microtiter plates at a cell density of 4,000 to 40,000 cells/well dependent on the cell line's growth rate. […] After an incubation period of 1-2 hours at room temperature, fluorescence (FU) was measured using the Enspire Multimode Plate Reader (excitation λ=530 nm, emission λ=620 nm) to quantify the amount of attached viable cells. […]

Assay [1] concerns the target T1, CISD1 Gene Product (mitoNEET) (Homo sapiens, UniProt Q9NZ45).
T1 sequence (Q9NZ45 33-108 limits assumed): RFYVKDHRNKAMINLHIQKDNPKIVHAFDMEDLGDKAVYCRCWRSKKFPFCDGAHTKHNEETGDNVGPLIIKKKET
Kind of assay: Stability of Fe-S cluster binding of purified NEET protein (absorbance 458 nm), mitoNEET. The assay is classed as biochemical. The procedure: The modulator effect on the NEET proteins encoded by human CISD1, CISD2, and CISD3 genes by the compounds of the invention has been tested and is reported below. Particularly, the biochemical function of the NEET proteins is measured by the stability of Fe—S cluster binding of the purified NEET proteins.
The Fe—S cluster binding capacity of NEET proteins is known to be coordinated by four amino-acids in a stretch of 16 (three Cysteine and one Histidine). As the lability of the Fe—S cluster of NEET proteins is sensitive to the environment, cluster stability measurements are one of the measures of interactions of NEET proteins with small molecules and compounds. NEET protein/2Fe-2S cluster stability can be assessed by monitoring the decay in absorbance of its characteristic 458-nm peak (characteristic of the oxidized 2Fe-2S cluster) over time. Each NEET protein (mitoNEET, NAF-1 and Miner 2) was tested for its Fe—S binding in the absence or presence of a compound according to the invention (see table 3 below). […]
At pH 6, all the three NEET proteins (mitoNEET, NAF-1 and Miner 2) have a characteristic rate of loss of the bound Fe—S cluster that can be measured by the decrease of absorbance at wavelength 458 nm over time, using a spectrophotometer. […]
A reaction mix containing DMSO diluted in the Bis-Tris Buffer with or without a compound of the invention was prepared. […] The absorbance at wavelength 458 nm was taken at 5 minutes intervals at 37° C. with a spectrofluorimeter. […]
In addition to time monitoring, residual bound Fe—S cluster to NEET protein was measured at the final point of the spectrometry assay for each Test sample and compared to the Control sample data (in parenthesis table 3). This residual binding is measured by the differential percentage between the absorbance 458 nm at time zero and the absorbance 458 nm at the end of the experiment (i.e. respectively 500 or 180 minutes as described hereabove), showing the percentage of NEET protein still able to bind a Fe—S cluster. […]

Structures are written as SMILES.

In the case of `O=C(Nc1scc(C2CCc3ccccc3C2)c1C(=O)O)c1ccccc1` (stereo not shown) [#16], in the assay on MMXF L-363, the IC50 was 357 nM. Also, the “Time (in minutes) to achieve 50% loss of bound cluster (Absorbance 458 nm)” value in assay [1] (mitoNEET 20 μM, compound 60 μM, pH 6, 37° C., vehicle control 80) is 35 (80) minutes. In addition, in assay [1] (mitoNEET, end of experiment 180 minutes, compound 60 μM, pH 6, vehicle control 16%), the “Residual cluster bound at end of experiment (Percentage Absorbance 458 nm at time zero)” value is listed as 0% (16%). Further, the “Stabiliser or destabiliser of NEET protein/Fe-S cluster binding” value in assay [1] (mitoNEET, destabiliser = time to 50% cluster loss decreased by more than 25% vs control) is reported as “destabilisers”.
